Series [1] in a line: Cytotoxicity assay on murine macrophages (alamarBlue). It counts as cell-based. Particulars: mouse, J774.A1 macrophage cell line, mean ± SD. The procedure:
(§1) Cytotoxicity effect of the tested derivatives was conducted using macrophages of the murine cell line J774.A1 (American Type Culture Collection #TIB-67, city, country), as previously described. The cells were maintained in DMEM at 37 °C in a 5% CO2 humidified incubator. All the plates containing alamarBlue® were analyzed using a plate reader EnSpire Multimode Plate Reader® at excitation and emission wavelengths of 570 and 585 nm, respectively (PerkinElmer, ThermoFisher Scientific, Madrid, Spain). The IC50 (concentrations able to inhibit 50% of parasites), IC90 (concentrations able to inhibit 90% of parasites), and CC50 (concentration able to inhibit 50% of murine macrophages) values were determined for each compound by nonlinear regression using GraphPad software.
Background: The colour change of resazurin is a common sign of viable cells or microbes.

The test system of series [2] is T. cruzi. Briefly: ATP level, CellTiter-Glo, T. cruzi. Particulars: IC90, 24 h, luminescence. It is filed as cell-based, Trypanosoma cruzi. As for the experimental part: (§2) The adenosine triphosphate (ATP) level was measured using the CellTiter-Glo Luminescent Cell Viability Assay (Promega, Madrid, Spain). The mitochondria in which most cellular oxidations occur is considered the main source of cell’s ATP; any damage and/or malfunction of this organelle generate the depletion of ATP levels.
For orientation: Cellular ATP, detected with luciferase, serves as a proxy for viable cell number.

For series [3], the system named is L. amazonensis promastigotes. In words: Monodansylcadaverine staining of autophagic vacuoles, L. amazonensis. Particulars: 24 h treatment, confocal microscopy. It counts as cell-based, Leishmania amazonensis. The procedure:
(§3) The present method consists of staining the autophagic vacuoles with the treated cells by ion trapping and specific interactions with the vesicle membrane lipids. The experiment was carried out by following the manufacturer’s recommendations, and as described previously. After 24 h of incubation, cells were stained with MDC reagent at 5 mM and incubated at 26 °C for 30 min in µ-Slide 8 (Ibidi, Gräfelfing, Germany). Later, the cells were washed with PBS and observed with Leica DMI 4000 B.

Series [4] deals with L. amazonensis. Briefly: ATP level, CellTiter-Glo, L. amazonensis. It counts as cell-based, Leishmania amazonensis. Particulars: IC90, 24 h, luminescence. As for the experimental part: as §2
The nature of series [5]: Intramacrophagic stage assay, T. cruzi in J774.A1 macrophages. It counts as cell-based, Trypanosoma cruzi. Particulars: mouse; CC50 J774.A1 / IC50 intracellular T. cruzi; read-out: Selectivity Trypanosoma SI (CC50/IC50). As for the experimental part:
(§4) Briefly, in a 96-well plate, macrophages from the J774.A1 cell line were seeded at a final concentration of 2 × 10^5 cells/mL in Dulbecco’s Modified Eagle Medium (DMEM) and maintained at 37 °C in a 5% CO2 atmosphere until fully adhesion. Cells were infected either with L. amazonensis promastigotes (at a ratio of 1:10) or epimastigotes of T. cruzi (at a ratio of 1:7) (macrophage: parasite) and incubated at 37 °C in 5% CO2 for 24 h for Leishmania and 48 h for Trypanosoma. After infection, plates were washed using DMEM to eliminate external parasites. Subsequently, infected macrophages were treated with different concentrations of active compounds for 24 h. Later, macrophages were lysed using 30 μL of medium, Schneider for Leishmania, and in liver infusion tryptose for Trypanosoma, containing 0.05% of sodium dodecyl sulfate (SDS) for 30 s under agitation. Afterwards, 170 μL of the appropriated medium was derivatives added to each well to give a final volume of 200 μL. Subsequently, 10% of alamarBlue® was added into each well and the plate was incubated at 26 °C for 72 h.
as §1

Series [6] relates to intramacrophage T. cruzi. The series is described as above. Conditions: Trypanosoma cruzi; intramacrophage stage in J774.A1, 24 h treatment; mean ± SD; read-out: T. cruzi Intracellular IC50. It is filed as cell-based, Trypanosoma cruzi. The procedure:
as §4, §1

Series [7] can be described thus: alamarBlue assay on T. cruzi epimastigotes. It counts as cell-based, Trypanosoma cruzi. Conditions: mouse; CC50 J774.A1 / IC50 T. cruzi epimastigotes; read-out: Selectivity Trypanosoma SI (CC50/IC50). The procedure: (§5) In a 96-well plate, a serial dilution of the tested derivatives was performed in liver infusion tryptose medium supplemented with 10% heat inactivated fetal bovine serum. Later, 100 µL of 5 × 10^5 cells/mL of epimastigotes was added to each well. Afterwards, 20 µL of alamarBlue® was added to each well, and the plate was maintained at 26 °C for 72 h.
as §1

Series [8] relates to T. cruzi epimastigotes. Briefly: alamarBlue assay on T. cruzi epimastigotes. Particulars: Trypanosoma cruzi. It is filed as cell-based, Trypanosoma cruzi. As for the experimental part: as §5, §1
Series [9] has as its system L. amazonensis promastigotes. Briefly: Hoechst/PI double stain, chromatin condensation, L. amazonensis. It counts as cell-based, Leishmania amazonensis. Conditions: IC90, 24 h. The source says:
(§6) To identify the type of cell death occurring in both kinetoplastids after treatment, Hoechst 33342 and propidium iodide (PI) dyes were used. Even though both dyes are DNA affine, the Hoechst 33342 stain is cell permeable and known to distinguish apoptotic cells from healthy or necrotic cells, whereas the PI is cell impermeable and stain dead cells as late apoptotic or necrosis. After treatment, three types of staining could be observed: blue fluorescence for cells undergoing apoptosis, violet color as the merge of blue and red fluorescence for late apoptotic cells, and red color for dead cells.

Series [10] deals with T. cruzi epimastigotes. Briefly: Hoechst/PI double stain, chromatin condensation, T. cruzi. Conditions: IC90, 24 h. It counts as cell-based, Trypanosoma cruzi.
Source text: as §6

The subject of series [11] is T. cruzi epimastigotes. In words: Monodansylcadaverine staining of autophagic vacuoles, T. cruzi. It counts as cell-based, Trypanosoma cruzi. Conditions: 24 h treatment, confocal microscopy. As for the experimental part:
as §3

A short description of series [12]: alamarBlue assay on L. amazonensis promastigotes. It is filed as cell-based, Leishmania amazonensis. Conditions: mouse; CC50 J774.A1 / IC50 L. amazonensis promastigotes; read-out: Selectivity Leishmania SI (CC50/IC50). The procedure:
(§7) The assay was conducted using the alamarBlue® method as previously described. Briefly, promastigotes of L. amazonensis were grown at 26 °C in Schneider’s medium (US Biological, Life sciences) and supplemented with 10% heat-inactivated fetal bovine serum and 0.04% of sodium bicarbonate. In a 96-well microtiter plates (Corning™, Corning, NY, USA) a serial dilutions of thymol derivatives were first prepared, and later, 10^6 parasites/mL were added into each well. Subsequently, 10% of alamarBlue® was added to the entire plate. The plates were incubated for 72 h at 26 °C.
as §1

The test system of series [13] is L. amazonensis promastigotes. In words: alamarBlue assay on L. amazonensis promastigotes. It counts as cell-based, Leishmania amazonensis. Particulars: Leishmania amazonensis. The procedure: as §7, §1
The mark [14] stands for this setting: 72 h, epimastigotes, alamarBlue, 72 h at 26 °C, mean ± SD, triplicates, read-out: T. cruzi Epimastigote IC50.
Setting [15] is: 72 h, promastigotes, alamarBlue, 72 h at 26 °C, mean ± SD, triplicates, read-out: L. amazonensis Promastigote IC50.

Experimental findings from article PMC12024213, “Mechanism Insight of Cell Death Signaling by Thymol Derivatives on Trypanosomatidae Protozoan Parasites” (Antibiotics, 2025) are described below.

Broadly, the CC50 is the concentration giving 50% cytotoxicity. Lower therefore signals harm at low concentration. Usually IC50 stands for the point on the concentration scale where inhibition reaches its midpoint.

SMILES strings stand for the structures. Where two headings read alike, the source gives them in different places.

On to `COc1ccc(C(=O)Oc2cc(C)ccc2C(C)C)cc1` [Derivative 9, thymyl anysoate], for which the CC50 in [1] was above 300 µM. The “decrease of ATP production compared to negative control” value in [2] is reported as 65%; in [4], 84%. For the same compound, the “autophagic vacuoles (MDC staining)” value in series [3] and in series [11] was “Induction of autophagy” in each case. The selectivity ratio in [5] is above 33; in [7] it was above 11.2; in series [12], above 10.3. The IC50 in series [6] was 9.1 ± 0.5 µM; in [8] (setting [14]), 26.8 ± 2.2 µM; in series [13] (setting [15]) it was 29.1 ± 3.8 µM; in [13] (abstract, stage not stated, read-out: IC50 against L. amazonensis (abstract)) it was 22.9 µM. Moreover, the “chromatin condensation (Hoechst/PI staining)” value in [9] and in [10] was “increasing the chromatin condensation” each time.

`Cc1ccc(C(C)C)c(OC(=O)c2ccccn2)c1` [Derivative 10, thymyl picolinate]: the CC50 in [1] is 254.5 ± 1.9 µM. Also, the entries for the “decrease of ATP production compared to negative control” value in series [2] and in series [4] were 50% and 67%, respectively. The “autophagic vacuoles (MDC staining)” value in series [3] and in series [11] was “Induction of autophagy” each time. For the same compound, the results for the selectivity ratio in series [5], in series [7] and in series [12] were 8.8, 7.2 and 7.4, respectively. The IC50 turned out to be 28.8 ± 5.6 µM in series [6]; 35.5 ± 2.5 µM in series [8] (setting [14]); 25.2 µM in [8] (abstract, stage not stated, read-out: IC50 against T. cruzi (abstract)); 34.4 ± 2.3 µM in [13] (setting [15]). For the same compound, the “chromatin condensation (Hoechst/PI staining)” value in series [9] and in series [10] was “increasing the chromatin condensation” in each case.
